How the values were obtained:
[1] = tested on: Proteus mirabilis bacteria; assay: Odor control: ammonia in head space above inoculated wood pulp pads; assay type: cell-based; details: coated, chlorinated wood pulp pads, 37° C., six hours
Procedure: 3-triethoxysilylpropyl-5,5-dimethylhydantoin, prepared as described in Example 1, was used to treat non-woven pads consisting of 1 gram of a wood pulp matrix such as is used in diapers and incontinence products. A 5% solution prepared in a distilled water and ethanol 1:1 mixture was applied to pads of the wood pulp fibers, and they were then left to soak for 5 minutes. Excess solution was vacuum suctioned from the pads, which were then dried in an oven at 90° C. for two hours. Untreated pads were also subjected to exposure to water and ethanol as controls, and were similarly dried.
Dried coated test samples and uncoated control pads were then treated by exposure to 10% sodium hypochlorite solution for 15 minutes, after which they were rinsed exhaustively with distilled water, and then vacuum dried to remove any unbound, free chlorine. Additional control pads consisted of wood pulp coated with 3-triethoxysilylpropyl-5,5-dimethylhydantoin but not exposed to the hypochlorite bleach charge. […]
All test and control pads were then exposed to an inoculum designed to generate ammonia odor as a result of bacterial action on urine, simulating events in an infant or adult human diaper. […] At the end of this period the samples were removed from the incubator, and the amount of ammonia gas in the head space above each pad was measured as an indicator of the degree of odor generated in the urine. […]

[2] = Laundry washing cycles (AATCC Test Method 61, Test 2A), chlorine loading after washing; assay type: physicochemical; details: for Average Chlorine Loading %: cotton
Procedure: Finally, a wash test was performed on swatches of cotton containing the monomer 3-triethoxysilylpropyl-5,5-dimethylhydantoin coating and the polysiloxane coating, each chlorinated and unchlorinated, for comparison purposes. Two treatment baths were prepared, one containing an 8% solution of 3-triethoxysilylpropyl-5,5-dimethylhydantoin in a 50% solution of ethanol in water, the other containing an 8% solution of siloxane polymer prepared as described above in a 66.7% solution of ethanol in water. Identical cotton swatches were soaked in the two baths for 2.5 minutes at ambient temperature, cured in air at 130° C. for 20 minutes, soaked in 1.5% liquid detergent at ambient temperature for 15 minutes, rinsed thoroughly with water, and dried in air at 50° C. for 30 minutes. Then one-half of the swatches of each type were chlorinated by soaking them in 5% CLOROX at ambient temperature for 45 minutes. These chlorinated samples were rinsed thoroughly with water and dried in air at 50° C. for 30 minutes to remove all occluded free chlorine. Iodometric/thiosulfate titrations were performed on representative samples to determine initial chlorine loadings. The average chlorine loading for the silane monomer-coated samples was 0.61%; for the siloxane polymer-coated samples, the average chlorine loading was 0.40%. Then all types of coated swatches were subjected to laundry washing cycles using AATCC Test Method 61 (Test 2A Procedure). Samples were evaluated after 5, 10, and 50 washing cycles for retention of the coatings. Those samples not chlorinated before washing were chlorinated by the procedure described above in order to assess how much chlorine could be loaded after variable numbers of washing cycles. Those chlorinated before washing were divided into two groups with half being assessed for chlorine loading without rechlorination, the other half being rechlorinated and then assessed for chlorine loading. Three observations are clearly evident from the data in Table 3. First, both the silane and the siloxane coatings are partially lost upon successive washings. Second, prechlorination reduces the rate of loss, probably due to increasing the hydrophobicity of the surface, thus reducing the rate of hydrolysis loss of the siloxane coatings. Third, the siloxane coating, which is not chlorinated to as high a level as the silane one upon initial chlorination, is lost at a slower rate than is the silane coating. For all of the coatings, at least partial biocidal efficacy would be regenerated upon rechlorination after 50 washing cycles. Most probably, a low concentration of bleach added to washing cycles should maintain biocidal activity of the cotton material for the lifetime of the material.
Finally, 100% cotton fabric swatches were tested. In this case 10 mL of the refluxed solution of polymer (the solid was not isolated) were mixed with 100 mL of a 50% ethanol/50% water solution in a beaker. The cotton swatches (7 g) were soaked in the solution for 3 minutes, then partially dried in air at ambient temperature, and then cured at 150° C. for 30 minutes. After soaking in 5% CLOROX for 20 minutes, the swatches were rinsed and dried at ambient temperature. The average chlorine loading of several swatches was determined by iodometric/thiosulfate titration to be 0.438% Cl. Then the other treated swatches were subjected to laundry washing cycles using AATCC Test Method 61 (Test 2A Procedure) followed by analytical determination of chlorine loading as a function of the number of wash cycles. After 5, 10, and 50 wash cycles the chlorine loadings averaged 0.282%, 0.279%, and 0.165%, respectively.

[3] = tested on: S. aureus (ATCC 6538); assay: Challenge of treated cotton swatches, modified AATCC Method 100; assay type: cell-based; details: coated chlorinated cotton swatches, contact time interval 10-30 minutes, pH 7 phosphate buffer
Procedure: (§1) Treated cotton swatches were challenged with S. aureus (ATCC 6538) and Escherichia coli (ATCC 2666) at a concentration of between 10^8 and 10^9 CFU/mL in pH 7 phosphate buffer solution using a modified version of AATCC Method 100. The swatches were quenched with 0.02 N sodium thiosulfate solution at contact times of 10, 30, 60, and 120 min. Serial dilutions of the solutions contacting the swatches were plated on nutrient agar, incubated for 48 hours at 37° C., and plate counts were made to determine the presence of viable bacteria. […] The control sample (cotton soaked in 10% bleach, rinsed, and dried) gave only a 0.4 log reduction at 30 minutes. […] The control sample (cotton soaked in 10% bleach, rinsed, and dried) gave a 0 log reduction at 120 minutes.

[4] = tested on: Escherichia coli (ATCC 2666); assay: as above; assay type: cell-based; details: contact time interval 60-120 minutes
Procedure: as §1

CCO[Si](CCCN1C(=O)NC(C)(C)C1=O)(OCC)OCC [3-triethoxysilylpropyl-5,5-dimethylhydantoin]
odor detected by the human nose [1]: no detectable odor whatsoever | ammonia in the head space above the pads ([1]; urine + urea + P. mirabilis, lower limit of detection 0.25 ppm): < 0.25 ppm | bound chlorine retained ([2]; cotton cloth, after 50 wash cycles): about 34% | Average Chlorine Loading % ([2]; chlorination before washing No, after washing Yes, 5 washing cycles): 0.26% | Average Chlorine Loading % ([2]; chlorination before washing No, after washing Yes, 10 washing cycles): 0.15% | Average Chlorine Loading % ([2]; chlorination before washing No, after washing Yes, 50 washing cycles): 0.03% | Average Chlorine Loading % ([2]; chlorination before washing Yes, after washing No, 5 washing cycles): 0.42% | Average Chlorine Loading % ([2]; chlorination before washing Yes, after washing No, 10 washing cycles): 0.41% | Average Chlorine Loading % ([2]; chlorination before washing Yes, after washing No, 50 washing cycles): 0.10% | Average Chlorine Loading % ([2]; chlorination before washing Yes, after washing Yes, 5 washing cycles): 0.394% | Average Chlorine Loading % ([2]; chlorination before washing Yes, after washing Yes, 10 washing cycles): 0.388% | Average Chlorine Loading % ([2]; chlorination before washing Yes, after washing Yes, 50 washing cycles): 0.133% | log reduction of S. aureus [3]: > 5.7 logs | log reduction of E. coli [4]: > 5.9 logs

Source: patent US20080003438A1, “Heterocyclic siloxanes for use in biocidal coatings and materials” (Auburn University, priority 2002, published 2008)
